Patent US6232503A, “Alkynyl aryl sulfones” (Lonza Inc., priority 1999, dated 2001)
Converted amounts (≈) assume the structure as drawn.

Key:
Assay type in all cases: cell-based
Staphylococcus aureus = test: Zone of inhibition assay, 24 hour minimum inhibitory concentration, Staphylococcus aureus; settings: Day-Engley neutralizing media
Protocol: (§1) The minimum inhibitory concentrations of ethynyl 4-methylbenzene sulfone, available from Aldrich Chemical Co., and the sulfones prepared in Examples 1-15 were determined against the bacteria Burkholderia cepacia and Staphylococcus aureus by the zone of inhibition assay method common in the art. Burkholderia cepacia and Staphylococcus aureus was contacted with each sulfone for 24 hours in a Day-Engley neutralizing media (Difco Manual, 10th Ed., p. 261-263 (1984). The results are shown in Table 1.

Burkholderia cepacia = test: Zone of inhibition assay, 24 hour minimum inhibitory concentration, Burkholderia cepacia; settings: Day-Engley neutralizing media
Protocol: as §1

Aspergillus niger = test: Zone of inhibition assay, 5 day minimum inhibitory concentration, Aspergillus niger; settings: ATCC16404, 120 h; Aspergillus niger ATCC #16404; 5 days; Day-Engley neutralizing media
Protocol: The minimum inhibitory concentrations of ethynyl 4-methylbenzene sulfone and the sulfones prepared in Examples 1-15 were determined against the fungi Aspergillus niger by the zone of inhibition assay method common in the art. A. niger ATCC #16404 was contacted with each sulfone for 5 days in a Day-Engley neutralizing media.

Compound	MIC (Staphylococcus aureus)	MIC (Burkholderia cepacia)	MIC (Aspergillus niger)
C#CS(=O)(=O)c1ccc(OC)cc1 [Ethynyl 4-Methoxybenzene Sulfone, ethynyl 4-methoxybenzene sulfone]	1 to 3 µg/mL (≈ 5.1 to 15.3 µM)	30 to 100 µg/mL (≈ 153 to 510 µM)	1000 to 3000 µg/mL (≈ 5100 to 15300 µM)
C#CS(=O)(=O)c1ccc(C)cc1 [Ethynyl 4-Methylbenzene Sulfone, ethynyl 4-methylbenzene sulfone, reference compound]	3 to 10 µg/mL (≈ 16.6 to 55.5 µM)	100 to 300 µg/mL (≈ 555 to 1660 µM)	3000 to 10000 µg/mL (≈ 16600 to 55500 µM)
C#CS(=O)(=O)c1c(C)cc(C)cc1C [Ethynyl 2,4,6-Trimethylbenzene Sulfone, Ethynyl 2,4,6-trimethylbenzene sulfone]	300 to 1000 µg/mL (≈ 1440 to 4800 µM)	300 to 1000 µg/mL (≈ 1440 to 4800 µM)	3000 to 10000 µg/mL (≈ 14400 to 48000 µM)
O=S(=O)(C#CI)c1ccc(OC(F)(F)F)cc1 [Iodoethynyl 4-trifluoromethoxybenzene sulfone]	0.3 to 1 µg/mL (≈ 0.798 to 2.66 µM)	100 to 300 µg/mL (≈ 266 to 798 µM)	30 to 100 µg/mL (≈ 79.8 to 266 µM)
O=S(=O)(C#CI)c1ccccc1 [Iodoethynyl Benzene Sulfone, Iodoethynyl benzene sulfone]	0.3 to 1 µg/mL (≈ 1.03 to 3.42 µM)	3 to 10 µg/mL (≈ 10.3 to 34.2 µM)	300 to 1000 µg/mL (≈ 1030 to 3420 µM)
COc1ccc(S(=O)(=O)C#CI)cc1OC [Iodoethynyl 3,4-Dimethoxybenzene Sulfone, Iodoethynyl 3,4-dimethoxybenzene sulfone]	30 to 100 µg/mL (≈ 85.2 to 284 µM)	300 to 1000 µg/mL (≈ 852 to 2840 µM)	300 to 1000 µg/mL (≈ 852 to 2840 µM)
CCc1ccc(S(=O)(=O)C#CI)cc1 [Iodoethynyl 4-Ethylbenzene Sulfone, Iodoethynyl 4-ethylbenzene sulfone]	0.3 to 1 µg/mL (≈ 0.937 to 3.12 µM)	100 to 300 µg/mL (≈ 312 to 937 µM)	10 to 30 µg/mL (≈ 31.2 to 93.7 µM)
COc1ccc(S(=O)(=O)C#CI)cc1 [Iodoethynyl 4-Methoxybenzene Sulfone, iodoethynyl 4-methoxybenzene sulfone]	3 to 10 µg/mL (≈ 9.31 to 31 µM)	30 to 100 µg/mL (≈ 93.1 to 310 µM)	30 to 100 µg/mL (≈ 93.1 to 310 µM)
CC(C)(C)c1ccc(S(=O)(=O)C#CI)cc1 [Iodoethynyl 4-t-Butylbenzene Sulfone, Iodoethynyl 4-t-butylbenzene sulfone]	1 to 3 µg/mL (≈ 2.87 to 8.62 µM)	300 to 1000 µg/mL (≈ 862 to 2870 µM)	100 to 300 µg/mL (≈ 287 to 862 µM)
C#CS(=O)(=O)c1ccccc1 [Ethynyl Benzene Sulfone, Ethynyl benzene sulfone]	1 to 3 µg/mL (≈ 6.02 to 18.1 µM)	10 to 30 µg/mL (≈ 60.2 to 181 µM)	1000 to 3000 µg/mL (≈ 6020 to 18100 µM)
Cc1ccc(S(=O)(=O)C#CI)cc1 [Iodoethynyl 4-Methylbenzene Sulfone, Iodoethynyl 4-methylbenzene sulfone]	0.3 to 1 µg/mL (≈ 0.98 to 3.27 µM)	0.3 to 1 µg/mL (≈ 0.98 to 3.27 µM)	100 to 300 µg/mL (≈ 327 to 980 µM)
C#CS(=O)(=O)c1ccc(OC)c(OC)c1 [Ethynyl 3,4-Dimethoxybenzene Sulfone, Ethynyl 3,4-dimethoxybenzene sulfone]	10 to 30 µg/mL (≈ 44.2 to 133 µM)	> 1000 µg/mL	> 10000 µg/mL
C#CS(=O)(=O)c1ccc(C(C)(C)C)cc1 [Ethynyl 4-t-Butylbenzene Sulfone, Ethynyl 4-t-butylbenzene sulfone]	30 to 100 µg/mL (≈ 135 to 450 µM)	> 1000 µg/mL	> 10000 µg/mL
C#CS(=O)(=O)c1ccc(CC)cc1 [Ethynyl 4-Ethylbenzene Sulfone]	3 to 10 µg/mL (≈ 15.4 to 51.5 µM)	300 to 1000 µg/mL (≈ 1540 to 5150 µM)	3000 to 10000 µg/mL (≈ 15400 to 51500 µM)
Cc1cc(C)c(S(=O)(=O)C#CI)c(C)c1 [Iodoethynyl 2,4,6-trimethylbenzene sulfone]	100 to 300 µg/mL (≈ 299 to 898 µM)	300 to 1000 µg/mL (≈ 898 to 2990 µM)	100 to 300 µg/mL (≈ 299 to 898 µM)
C#CS(=O)(=O)c1ccc(OC(F)(F)F)cc1 [Ethynyl 4-trifluoromethoxybenzene sulfone]	3 to 10 µg/mL (≈ 12 to 40 µM)	> 1000 µg/mL	> 10000 µg/mL
